Experimental data published in patent publication US8269009B2, “Methods and compositions for treating liquid tumors” (Elan Pharmaceuticals, Inc., priority 2007, dated 2012).

Experiments:
[1] = tested on: neovascularization of the cornea; experiment: Mouse corneal micropocket angiogenesis assay (VEGF pellet); type: in vivo, C57BL/6 mice
Protocol: Fifty-five Charles River (Wilmington, N.C.) female C57BL/6 mice were available for the study. […] On Day 1 (Oct. 9, 2007) the Hydron pellets were implanted into corneal pocket cut in one eye of mice; pellets containing 200 ng/animal VEGF were implanted in Groups 2-6. Mice were anesthetized with 90 mg/kg pentobarbital, IP, immediately prior to implantation surgery; pellet implantation was performed according to Piedmont SOP which the test facility described as an adaptation of the method described by Kenyon et al (B M Kenyon, E E Voest, C C Chen, E Flynn, J Folkman, R J D'Amato, 1996, A model of angiogenesis in the mouse cornea, Investigative Opthalmology & Visual Science, Vol 37 No 8, 1625-1632). […]
Body weights were taken every day throughout the study. […] The vessel length of the longest blood vessel to have grown upward from the limbus was measured (VL) as was the circumference of vessel growth or clock hour (CH). The area of neovascularization was calculated using the formula: Area (mm^2)=πVL×CH×0.2. In addition to reporting the vessel length, clock hour, and calculated area of neovascularization, the percent neovascularization compared to the VEGF-treated negative control (Group 2) was reported. statistical significance by Kruskal-Wallis-Dunn with comparison to Group 2 and mean body weight nadir (the lowest group mean body weight, as a percent change from Day 1. […]

[2] = Maximum tolerated dose of topotecan in the MOLT-4 model (Piedmont Research Center); conditions: SCID, mouse, in vivo; MOLT-4 cell line model
Protocol: The dose level of 12 mg/kg topotecan was determined as maximum tolerated dose in the MOLT-4 cell line by Piedmont Research Center. Since maximal biologic effect can occur at a dose much lower than the MTD, we had included ½ the maximum tolerated (½MTD=6 mg/kg) (see Marx, G M et al., Journal of Clin One 2002; 20(6): 1446-1448).

With “bevacizumab: bevacizumab (Avastin, Genentech), an anti-VEGF monoclonal antibody” the Percent neovascularization ([1]; 10 mg/kg IP, qd x 6 from Day 2) was 0% and the “Changes in body weight vs untreated group” value ([1]; mouse, in vivo) was “no significant changes”.

`CC[C@@]1(O)C(=O)OCc2c1cc1n(c2=O)Cc2cc3c(CN(C)C)c(O)ccc3nc2-1` [topotecan] gave an MTD [2] of 12 mg/kg.
